Results published in patent publication US20100152303A1, “AGENTS AND METHOD FOR […] […]” (priority 2000, published 2010).

Columns and labels:
[1] = system: ERP57; assay: Effect of methoxychlor on ERP57 concentration in rat livers (immunoelectrophoresis of liver microsomes); format: in vivo; conditions: male CD rats, gavage in corn oil, 14 days, dosages 10, 50, and 100 mg/kg/day
Excerpt: The purpose of this experiment was to determine the effect of administering varying levels of methoxychlor for 14 days on the levels of the microsomal protein ERP57 in mammalian tissues.
Methoxychlor, potassium chloride, and Tris were purchased from Sigma Chemicals (St. Louis, Mo.). The BCA (Bicinchoninic Acid) Assay kits were purchased from Pierce Chemical Company (Rockford, Ill.). Agarose was purchased from Boehringer Mannheim (Indianapolis, Ind.). Polyclonal antibodies to the ERP57 were developed in laying hens as previously described (Srivastava et al. 1991, J. Biol. Chem. 266: 20337-20344; Chen et al. 1996, Biochemistry 25: 8299-8306).
The animals used in these studies were 150-200 g fed, male, CD rats from Harlan Laboratories. […] The microsomal suspensions were aliquoted and stored at −80° C. until analyzed.
The concentrations of total microsomal protein were then determined via the BCA assay. […]
The concentration of ERP57 in the samples was determined with immunoelectrophoresis. […]
The indicator dye was a combination of nitroblue tetrazolium and 5-bromo-4-chloro-3-indoyl phosphate from Bio Rad (Richmond, Calif.). […] The densities of the stained bands were determined on a flat bed scanner from UMAX (Taiwan, China). The scans were analyzed using NIH Image (version 1.54) on a PowerPC (Apple Computer). The blank for each band was determined from the adjacent, unreacted area in the lane.

[2] = cited from earlier work

For `COc1ccc(C(c2ccc(OC)cc2)C(Cl)(Cl)Cl)cc1` [methoxychlor, 1,1,1-trichloro-2,2-bis-(4-methoxyphenyl)ethane], the “relative concentration of ERP57 in the rat liver, normalized by total microsomal protein” value [1] is listed as “significant increase” and the “rat oral LD50” value [2] is listed as > 6000 mg/kg.
